# Earlier results, collected in article PMC5368910 (BMC Pharmacology & Toxicology, 2017).
# What was measured:
# [1] = tested on: C. difficile; set-up: method as in PMID 22183166, PMID 22391542; conditions: in vitro, C. difficile isolates; cited from earlier work
# [2] = tested on: Clostridium difficile-associated diarrhea (CDAD); conditions: stated for vancomycin and metronidazole treatments together; cited from earlier work
# Text: Despite having a clinical response rate of ~73 to 85%, vancomycin and metronidazole treatments are associated with recurrent CDAD in up to 45% of patients. Aggressive vancomycin and metronidazole treatment is also associated with disruption of the intestinal microbiota and can promote colonization by vancomycin-resistant enterococci, highlighting the need for novel treatment options. An ideal agent for the treatment of CDAD should be associated with low levels of systemic absorption, resulting in high concentrations of the drug in the colon, combined with a narrow spect ...
smiles,measurement,setting,value
"CN[C@H](CC(C)C)C(=O)N[C@H]1C(=O)N[C@@H](CC(N)=O)C(=O)N[C@H]2C(=O)N[C@H]3C(=O)N[C@H](C(=O)N[C@H](C(=O)O)c4cc(O)cc(O)c4-c4cc3ccc4O)[C@H](O)c3ccc(c(Cl)c3)Oc3cc2cc(c3O[C@@H]2O[C@H](CO)[C@@H](O)[C@H](O)[C@H]2O[C@H]2C[C@](C)(N)[C@H](O)[C@H](C)O2)Oc2ccc(cc2Cl)[C@H]1O [vancomycin, reference compound]",minimum inhibitory concentration at which 90% of the isolates were inhibited [MIC90],[1],2.0 µg/mL
same,"recurrent CDAD, share of patients",[2],up to 45%
